The source of these data is US20260306526A1, “COMBINATION THERAPY FOR BACTERIAL INFECTIONS COMPRISING ZINC-CHELATOR, BETA-LACTAM ANTIBIOTIC AND SERINE BETA-LACTAMASE INHIBITOR” (priority 2023, published 2026).

Where “and” joins values, the source holds several entries; their conditions need not be identical. Equal values may be shown once.

Format in all cases: cell-based
The subject of assay [1] is Klebsiella pneumoniae K66-45. As to the kind of experiment: MIC determination, fixed concentration of sBLI (Examples 8-9). The settings on record: Example 9; with PIP and TAZ 16 μg/mL; NDM-1; caMHB, 29.4 μM Zn2+. The procedure: (§1) Antimicrobial susceptibility testing (AST) by broth microdilution (MIC determination) was performed according to The European Committee on Antimicrobial Susceptibility Testing (EUCAST) guidelines (see Reading guide for broth microdilution Version 5.0, 2024: https://www.eucast.org).
(§2) For combinations containing meropenem as the antibiotic, Sensititre™ FINMER meropenem 64-0.03 μg/mL plates (Thermo Fischer Diagnostics custom plates; YFINMER) were used in most of the experiments. For other antibiotics (and for meropenem whenever a higher start concentration than 64 μg/mL was needed) sterile clear round bottom polystyrene (non-treated) 96-well microplates (Corning 3788) were used for making serial two-fold dilutions of the antibiotic in cation-adjusted Mueller Hinton II broth (caMHB; Thermo Scientific, T3462, containing 29.4 μM Zn^2+ or MILLIPORE, 90922-500G, containing 5.6 μM Zn^2+), across the columns of the microtiter plate (128-0.06 μg/mL; columns 1-12).
(§3) The checkerboard plates were all modified by adding a serine β-lactamase inhibitor (sBLI) at a fixed concentration of 16 μg/mL. Additionally, the zinc chelator was added at various fixed concentrations. […]

In assay [2] the test system is Pseudomonas aeruginosa ST773. Nature of the assay: MIC determination, fixed concentration of sBLI (Examples 19-26). The settings on record: NDM-1, OXA-395, PDC-16, caMHB. The method, then:
as §1, §2
The checkerboard plates were all modified by adding a serine β-lactamase inhibitor (sBLI) at a fixed concentration of 16 μg/mL. Additionally, the zinc chelator was added at various fixed concentrations. Samples were mixed so that all plates contained a control containing antibiotic alone (no sBLI, no zinc chelator), a sample containing antibiotic and sBLI (double combination; no zinc chelator), and a sample containing antibiotic, sBLI and zinc chelator (triple combination). All test wells used in each plate contained growth medium (caMHB), and inoculated bacteria at a final inoculum between 3-7×10^5 CFU/mL. […] Synergy for the triple combination (antibiotic, sBLI, and zinc chelator) was defined as when the MIC in any of the rows containing the zinc chelator in combination with antibiotic and sBLI (triple combination), was lower than for antibiotic alone and lower than for the antibiotic and sBLI double combination.
An X in rows 1~4 in the table indicates growth of the bacterial inoculum, while a blank cell indicates no growth. Concentrations (μg/mL) of MEM are given in row 0. TAZ and the zinc chelator were added in fixed concentrations (TAZ at 16 μg/mL in rows 2-4, zinc chelator at 16 μg/mL in row 3 and at 8 μg/mL in row 4). As a control, the effect of MEM alone was tested (row 1). All wells contained bacterial growth medium (caMHB, 29.4 μM Zn^2+) and were inoculated with the test bacterium. The grey cells indicate the meropenem MIC.
An X in rows 1~4 in the table indicates growth of the bacterial inoculum, while a blank cell indicates no growth. Concentrations (μg/mL) of AZT are given in row 0. AVI and the zinc chelator were added in fixed concentrations (AVI at 16 μg/mL in rows 2-4, zinc chelator at 16 μg/mL in row 3 and at 8 μg/mL in row 4). As a control, the effect of AZT alone was tested (row 1). All wells contained bacterial growth medium (caMHB, 29.4 μM Zn^2+) and were inoculated with the test bacterium. The grey cells indicate the aztreonam MIC.
Two technical replicates were performed for each sample. An X in rows 1-8 in the table indicates growth of the bacterial inoculum, while a blank cell indicates no growth. Concentrations (μg/mL) of PIP are given in row 0. AVI and the zinc chelator were added in fixed concentrations (AVI at 16 μg/mL in rows 3-8, zinc chelator at 16 μg/mL in rows 5-6 and at 8 μg/mL in rows 7-8). As a control, the effect of PIP alone was tested (rows 1-2). All wells contained bacterial growth medium (caMHB, 29.4 μM Zn^2+) and were inoculated with the test bacterium. The grey cells indicate the piperacillin MIC.
An X in rows 1~4 in the table indicates growth of the bacterial inoculum, while a blank cell indicates no growth. Concentrations (μg/mL) of PIP are given in row 0. TAZ and the zinc chelator were added in fixed concentrations (TAZ at 16 μg/mL in rows 2-4, zinc chelator at 16 μg/mL in row 3 and at 8 μg/mL in row 4). As a control, the effect of PIP alone was tested (row 1). […]

Assay [3] deals with Acinetobacter baumannii ST25. Nature of the assay: MIC determination, fixed concentration of sBLI (Example 10). The following applies: with AMP and SUL 16 μg/mL, NDM-1, OXA-58, OXA-64, OXA-10, VEB-21, ADC-26, caMHB, 29.4 μM Zn2+. The method, then: as §1, §2, §3

For the molecule `CN(C[C@H](O)[C@@H](O)[C@H](O)[C@H](O)CO)C(=O)c1ccc(CN(Cc2ccccn2)Cc2ccccn2)nc1` [zinc chelator], the “Synergy with the zinc chelator observed at concentration” value in assay [1] is 16 µg/mL; in assay [2] (Example 19, with MEM and TAZ 16 μg/mL, 29.4 μM Zn2+) it was 16 µg/mL; in assay [2] (Example 20, with AZT and AVI 16 μg/mL, 29.4 μM Zn2+), 16 µg/mL; in assay [2] (Example 21, with PIP and AVI 16 μg/mL, 29.4 μM Zn2+, 8 μg/mL for one replicate only, other replicate not interpretable) it was 16 µg/mL and 8 µg/mL; in assay [2] (Example 22, with PIP and TAZ 16 μg/mL, 29.4 μM Zn2+) it was 16 µg/mL; in assay [2] (Example 24, with MEM and TAZ 16 μg/mL, 5.6 μM Zn2+, 16 and 4 μg/ml not interpretable according to EUCAST), 8 µg/mL. Further, the “Synergy with the zinc chelator observed at concentration” value in assay [2] (Example 26, with PIP and TAZ 16 μg/mL, 5.6 μM Zn2+, 16 μg/mL not interpretable according to EUCAST) is 8 µg/mL and 4 µg/mL; in assay [3] it was 16 µg/mL.
